From the NIST ThermoML archive (doi:10.1021/je700026d)
Numbers after ± are expanded uncertainties.

Tests used:
[1] = Liquid; for speed of sound: 100 kPa, Linear variable-path acoustic interferometer; for viscosity / mass density: 101.3 kPa; for viscosity: Capillary tube (Ostwald / Ubbelohde) method; for mass density: Pycnometric method
[2] = xn = mol fraction of the nth substance listed; conditions: Liquid; for speed of sound: 100 kPa, Linear variable-path acoustic interferometer; for viscosity: Capillary tube (Ostwald / Ubbelohde) method; for mass density: Pycnometric method

Row | SMILES | speed of sound ([1]; 298.15 K) [m/s] | viscosity ([1]; 298.15 K) [mPa·s] | mass density ([1]; 298.15 K) [kg/m3] | viscosity ([1]; 308.15 K) [mPa·s] | mass density ([1]; 308.15 K) [kg/m3] | viscosity ([1]; 318.15 K) [mPa·s] | mass density ([1]; 318.15 K) [kg/m3] | also measured
1 | COCCO [2-methoxyethan-1-ol] | 1339.4 ± 1.8 | 1.543 ± 0.014 | 959.7 ± 0.7 | 1.257 ± 0.012 | 951.5 ± 0.7 | 1.051 ± 0.011 | 945.9 ± 0.7 | –
2 | COCCO [2-methoxyethan-1-ol] + NC=O | – | – | – | – | – | – | – | speed of sound ([2]; 298.15 K, x2 = 0): 1339.4 ± 1.8 m/s; viscosity ([2]; 298.15 K, 101.3 kPa, x2 = 0): 1.543 ± 0.014 mPa·s; mass density ([2]; 298.15 K, 101.3 kPa, x2 = 0): 959.7 ± 0.7 kg/m3; viscosity ([2]; 308.15 K, 101.3 kPa, x2 = 0): 1.257 ± 0.012 mPa·s; mass density ([2]; 308.15 K, 101.3 kPa, x2 = 0): 951.5 ± 0.7 kg/m3; viscosity ([2]; 318.15 K, 101.3 kPa, x2 = 0): 1.051 ± 0.011 mPa·s; mass density ([2]; 318.15 K, 101.3 kPa, x2 = 0): 945.9 ± 0.7 kg/m3
3 | CC#N [acetonitrile] + NC=O | – | – | – | – | – | – | – | speed of sound ([2]; 298.15 K, x2 = 0): 1260.2 ± 5.2 m/s; viscosity ([2]; 298.15 K, 101.3 kPa, x2 = 0): 0.344 ± 0.007 mPa·s; mass density ([2]; 298.15 K, 101.3 kPa, x2 = 0): 776 ± 0.7 kg/m3; viscosity ([2]; 308.15 K, 101.3 kPa, x2 = 0): 0.313 ± 0.007 mPa·s; mass density ([2]; 308.15 K, 101.3 kPa, x2 = 0): 766.3 ± 0.7 kg/m3; viscosity ([2]; 318.15 K, 101.3 kPa, x2 = 0): 0.289 ± 0.007 mPa·s; mass density ([2]; 318.15 K, 101.3 kPa, x2 = 0): 755 ± 0.7 kg/m3
4 | CC(=O)c1ccccc1 [acetophenone] | 1296.4 ± 1.8 | 1.653 ± 0.014 | 1023.1 ± 0.7 | 1.412 ± 0.013 | 1014.8 ± 0.7 | 1.117 ± 0.012 | 1007.5 ± 0.8 | –
5 | C[S+](C)[O-] [dimethyl sulfoxide] + NC=O | – | – | – | – | – | – | – | speed of sound ([2]; 298.15 K, x2 = 0): 1493 ± 3.4 m/s; viscosity ([2]; 298.15 K, 101.3 kPa, x2 = 0): 2.042 ± 0.034 mPa·s; mass density ([2]; 298.15 K, 101.3 kPa, x2 = 0): 1095.4 ± 2.5 kg/m3; viscosity ([2]; 308.15 K, 101.3 kPa, x2 = 0): 1.568 ± 0.026 mPa·s; mass density ([2]; 308.15 K, 101.3 kPa, x2 = 0): 1085.9 ± 2.5 kg/m3; viscosity ([2]; 318.15 K, 101.3 kPa, x2 = 0): 1.485 ± 0.024 mPa·s; mass density ([2]; 318.15 K, 101.3 kPa, x2 = 0): 1076.9 ± 2.5 kg/m3
6 | NC=O [formamide] | 1591.3 ± 3.4 | 3.302 ± 0.055 | 1129.2 ± 2.6 | 2.542 ± 0.043 | 1120.5 ± 2.6 | 2.001 ± 0.034 | 1111.1 ± 2.6 | –
7 | NC=O [formamide] + CC(=O)c1ccccc1 | – | – | – | – | – | – | – | speed of sound ([2]; 298.15 K, x1 = 1): 1591.3 ± 3.4 m/s; viscosity ([2]; 298.15 K, 101.3 kPa, x1 = 1): 3.302 ± 0.055 mPa·s; mass density ([2]; 298.15 K, 101.3 kPa, x1 = 1): 1129.2 ± 2.6 kg/m3; viscosity ([2]; 308.15 K, 101.3 kPa, x1 = 1): 2.542 ± 0.043 mPa·s; mass density ([2]; 308.15 K, 101.3 kPa, x1 = 1): 1120.5 ± 2.6 kg/m3; viscosity ([2]; 318.15 K, 101.3 kPa, x1 = 1): 2.001 ± 0.034 mPa·s; mass density ([2]; 318.15 K, 101.3 kPa, x1 = 1): 1111.1 ± 2.6 kg/m3
8 | NC=O [formamide] + COCCOC | – | – | – | – | – | – | – | speed of sound ([2]; 298.15 K, x1 = 1): 1591.3 ± 3.4 m/s; mass density ([2]; 298.15 K, 101 kPa, x1 = 1): 1129.2 ± 2.7 kg/m3; viscosity ([2]; 298.15 K, 101.3 kPa, x1 = 1): 3.302 ± 0.055 mPa·s; mass density ([2]; 308.15 K, 101 kPa, x1 = 1): 1120.5 ± 2.7 kg/m3; viscosity ([2]; 308.15 K, 101.3 kPa, x1 = 1): 2.542 ± 0.043 mPa·s; mass density ([2]; 318.15 K, 101 kPa, x1 = 1): 1111.1 ± 2.7 kg/m3; viscosity ([2]; 318.15 K, 101.3 kPa, x1 = 1): 2.001 ± 0.034 mPa·s

Continued, in another order:

Row | speed of sound ([1]; 298.15 K) [m/s] | viscosity ([1]; 298.15 K) [mPa·s] | mass density ([1]; 298.15 K) [kg/m3] | viscosity ([1]; 308.15 K) [mPa·s] | mass density ([1]; 308.15 K) [kg/m3] | viscosity ([1]; 318.15 K) [mPa·s] | mass density ([1]; 318.15 K) [kg/m3] | SMILES | also measured
9 | 1146.2 ± 1.7 | 0.409 ± 0.007 | 861.5 ± 1 | 0.366 ± 0.007 | 850.7 ± 1 | 0.33 ± 0.007 | 839.6 ± 1 | COCCOC [1,2-dimethoxyethane] | –
10 | 1260.2 ± 5.2 | 0.344 ± 0.007 | 776 ± 0.7 | 0.313 ± 0.007 | 766.3 ± 0.7 | 0.289 ± 0.007 | 755 ± 0.7 | CC#N [acetonitrile] | –
11 | 1493 ± 3.4 | 2.042 ± 0.034 | 1095.4 ± 2.5 | 1.568 ± 0.026 | 1085.9 ± 2.5 | 1.485 ± 0.024 | 1076.9 ± 2.5 | C[S+](C)[O-] [dimethyl sulfoxide] | –
